Test results as given in patent US10172946B2, “Monodisperse glycogen and phytoglycogen nanoparticles and use thereof as additives in cosmetics, pharmaceuticals, and food products” (Mirexus Biotechnologies Inc., priority 2013, dated 2019).

Assay: Photostability of phytoglycogen-ethyl-4-aminocinnamate conjugate versus aminocinnamate
Format: physicochemical
Conditions: after 4 h of exposure to UV-irradiation, thin film
Experimental: Aminocinnamate and a phytoglycogen-ethyl-4-aminocinnamate conjugate were dissolved in ethanol or in water, respectively.
Solutions were deposited as thin films onto a quartz plate and dried in air for 30 min. After drying, the samples were irradiated with UV light, as in Example 11, for 4 h and then tested for their photostability.
Photodegradation was calculated from the decrease in the maximum absorption of the respective products.

CCOC(=O)C=Cc1ccc(N)cc1 [aminocinnamate, ethyl 4-aminocinnamate]
maximum absorbance retained: 40%
